Measurements from patent US9018173B2, “Materials and methods for suppressing inflammatory and neuropathic pain” (Indiana University Research and Technology Corp., priority 2010, dated 2015).
Entries after “also recorded” stand apart in the source; their conditions may differ. Where two headings read alike, the source gives them in different places. Residues, ends and D or L forms follow the SMILES beside them.

What was measured:
[1] = target: T1, CRMP-2-CaV2.2 interaction (Rattus norvegicus, UniProt Q02294); assay: Immunoprecipitation of CRMP-2/CaV2.2 in the presence of peptides; type: binding; conditions: spinal cord lysates or rat brains; peptides 10 μM
T1 construct: that could be captured from rat brains; from tissue; host or cells: rat brain / spinal cord lysates (CaV2.2)
Description: Referring now to FIG. 18. […] Peptides (10 μM each) were added for 30 min prior to addition of the CRMP-2-His protein. Representative blot from 12 separate experiments is shown. (FIG. 18.B) In vitro binding of L1-GST and Ct-dis-GST fusion proteins to CRMP-2 in the presence of scramble or CBD3 peptides (10 μM). The purification of the L1 and Ct-dis regions of CaV2.2 has been described by us previously. CRMP-2 bound to L1 and Ct-dis was probed with a CRMP-2 antibody. Representative blot from 4 separate experiments are shown. Similar results were obtained in experiments with spinal cord lysates (FIGS. 18.B and 18D).
Immunoblotting. This was performed as described previously. Rat brain synaptosomes were pre-cleared by a 1-h incubation with 20 μl of a 50% slurry of protein A/G beads (Pierce). The cleared lysate was then incubated overnight with various primary antibodies or rabbit or mouse isotype-specific IgGs (Sigma) as controls. The antibody-captured complexes were recovered with fresh protein A-agarose (for rabbit polyclonal antibodies) or protein A/G-agarose (for mouse monoclonal antibodies) beads (20 μl of original bead slurry/sample) by incubation with lysate/antibody mixture at 4° C. for 2 h. The beads were then washed three times with lysis buffer. Prior to electrophoresis on SDS-polyacrylamide gels, protein samples were boiled in Laemmli sample buffer for 5 min. […]

[2] = system: tail kinking and body contortion; assay: Observation of side-effects after i.p. injection in rats; type: in vivo, rat; conditions: 20 mg/kg i.p.
Text: (§1) Referring now to FIG. 24. Biodistribution and side-effects of TAT-CBD3. […] Oxygenated blood was collected from a cardiac puncture. […] The 95% confidence limits are also indicated.

[3] = system: tail kinking and body contortion; assay: Observation of side-effects after i.p. injection in mice; type: in vivo
Text: as §1
The possible effects of TAT-CBD3 on motor coordination, locomotor function, sedation (rotarod test) and hippocampal-dependent memory (Morris water-maze test) was investigated.

motor coordination = assay: Rotarod test for motor coordination; type: in vivo, mouse (C57BL6); conditions: 10 and 50 mg/kg i.p.
Description: Rotarod test for motor coordination. The rotarod test was performed as described previously (Onyszchuk, G., He, Y. Y., Berman, N. E., & Brooks, W. M. Detrimental effects of aging on outcome from traumatic brain injury: a behavioral, magnetic resonance imaging, and histological study in mice. J. Neurotrauma. 25, 153-171 (2008)) with slight modifications. Briefly, the latency to fall off a rotating rod was measured at two different rotational accelerations (fast and slow). The rotarod device (IITC Life Science, Inc., Woodland Hills, Calif., USA) consists of a metal rod with hard plastic drums (diameter: 1.25 in) in each of five individual lanes. For slow acceleration, the device was accelerated from 1 rpm to 18 rpm over 90 seconds, with each trial lasting a maximum of 120 seconds. For fast acceleration, the device was accelerated from 1 rpm to 30 rpm over 90 seconds, with each trial lasting a maximum of 120 seconds. The trials ended when the mouse (C57BL6) either fell off the rod or clung to the rod as it made one complete rotation. The rotarod tests were performed before the injection to score the baseline latencies for each animal. These trials also served to acclimate the animals to the test paradigm. […] Performance was evaluated 3 days following injection.

spatial memory = assay: Morris water maze test of spatial/reference memory; type: in vivo, mice; conditions: 10 mg/kg i.p., 1 h-7 d after administration
Description: The rotarod test for motor coordination was performed as described with slight modifications. Following i.p. injection of vehicle or peptides, mice were tested with three trials each of fast and slow acceleration. The Morris water maze test was used to test reference/spatial memory. Mice were trained prior to the i.p. injection of TAT-Scramble or TAT-CBD3 peptides for 4 consecutive days (4 trials/day). Performance was evaluated 3 days following injection. Morris water maze test of spatial/reference memory. The Morris water maze test was used to test spatial memory. The maze consisted of a plastic pool (100 cm in diameter and 60 cm in depth) filled with water to a depth of 26.5 cm, with a clear Plexiglas stand (10 cm in diameter and 26 cm in height [i.e., 0.5 cm below the water's surface]) used as the hidden goal platform. The mice were trained prior to the injection for 4 consecutive days (4 trials/day). For each daily block of four trials, the mice were placed in the pool facing the wall. Trials were initiated from each of the four possible start locations (north, east, south, west) in a randomized manner. A maximum of 60 sec was allowed for each mouse to find the hidden platform. […] Mice were excluded from the study if their average latency to locate the platform on day 4 of the trials was greater than 50 sec. […]

[4] = system: dorsal root ganglion neurons; conditions: 10 μM, 12 h
[5] = system: capsaicin-induced meningeal blood flow changes; conditions: read-out: IC50 of percent inhibition of capsaicin-induced blood flow; dural application; versus averaged TAT-scramble; n=4-5

T1 sequence (Q02294 whole entry): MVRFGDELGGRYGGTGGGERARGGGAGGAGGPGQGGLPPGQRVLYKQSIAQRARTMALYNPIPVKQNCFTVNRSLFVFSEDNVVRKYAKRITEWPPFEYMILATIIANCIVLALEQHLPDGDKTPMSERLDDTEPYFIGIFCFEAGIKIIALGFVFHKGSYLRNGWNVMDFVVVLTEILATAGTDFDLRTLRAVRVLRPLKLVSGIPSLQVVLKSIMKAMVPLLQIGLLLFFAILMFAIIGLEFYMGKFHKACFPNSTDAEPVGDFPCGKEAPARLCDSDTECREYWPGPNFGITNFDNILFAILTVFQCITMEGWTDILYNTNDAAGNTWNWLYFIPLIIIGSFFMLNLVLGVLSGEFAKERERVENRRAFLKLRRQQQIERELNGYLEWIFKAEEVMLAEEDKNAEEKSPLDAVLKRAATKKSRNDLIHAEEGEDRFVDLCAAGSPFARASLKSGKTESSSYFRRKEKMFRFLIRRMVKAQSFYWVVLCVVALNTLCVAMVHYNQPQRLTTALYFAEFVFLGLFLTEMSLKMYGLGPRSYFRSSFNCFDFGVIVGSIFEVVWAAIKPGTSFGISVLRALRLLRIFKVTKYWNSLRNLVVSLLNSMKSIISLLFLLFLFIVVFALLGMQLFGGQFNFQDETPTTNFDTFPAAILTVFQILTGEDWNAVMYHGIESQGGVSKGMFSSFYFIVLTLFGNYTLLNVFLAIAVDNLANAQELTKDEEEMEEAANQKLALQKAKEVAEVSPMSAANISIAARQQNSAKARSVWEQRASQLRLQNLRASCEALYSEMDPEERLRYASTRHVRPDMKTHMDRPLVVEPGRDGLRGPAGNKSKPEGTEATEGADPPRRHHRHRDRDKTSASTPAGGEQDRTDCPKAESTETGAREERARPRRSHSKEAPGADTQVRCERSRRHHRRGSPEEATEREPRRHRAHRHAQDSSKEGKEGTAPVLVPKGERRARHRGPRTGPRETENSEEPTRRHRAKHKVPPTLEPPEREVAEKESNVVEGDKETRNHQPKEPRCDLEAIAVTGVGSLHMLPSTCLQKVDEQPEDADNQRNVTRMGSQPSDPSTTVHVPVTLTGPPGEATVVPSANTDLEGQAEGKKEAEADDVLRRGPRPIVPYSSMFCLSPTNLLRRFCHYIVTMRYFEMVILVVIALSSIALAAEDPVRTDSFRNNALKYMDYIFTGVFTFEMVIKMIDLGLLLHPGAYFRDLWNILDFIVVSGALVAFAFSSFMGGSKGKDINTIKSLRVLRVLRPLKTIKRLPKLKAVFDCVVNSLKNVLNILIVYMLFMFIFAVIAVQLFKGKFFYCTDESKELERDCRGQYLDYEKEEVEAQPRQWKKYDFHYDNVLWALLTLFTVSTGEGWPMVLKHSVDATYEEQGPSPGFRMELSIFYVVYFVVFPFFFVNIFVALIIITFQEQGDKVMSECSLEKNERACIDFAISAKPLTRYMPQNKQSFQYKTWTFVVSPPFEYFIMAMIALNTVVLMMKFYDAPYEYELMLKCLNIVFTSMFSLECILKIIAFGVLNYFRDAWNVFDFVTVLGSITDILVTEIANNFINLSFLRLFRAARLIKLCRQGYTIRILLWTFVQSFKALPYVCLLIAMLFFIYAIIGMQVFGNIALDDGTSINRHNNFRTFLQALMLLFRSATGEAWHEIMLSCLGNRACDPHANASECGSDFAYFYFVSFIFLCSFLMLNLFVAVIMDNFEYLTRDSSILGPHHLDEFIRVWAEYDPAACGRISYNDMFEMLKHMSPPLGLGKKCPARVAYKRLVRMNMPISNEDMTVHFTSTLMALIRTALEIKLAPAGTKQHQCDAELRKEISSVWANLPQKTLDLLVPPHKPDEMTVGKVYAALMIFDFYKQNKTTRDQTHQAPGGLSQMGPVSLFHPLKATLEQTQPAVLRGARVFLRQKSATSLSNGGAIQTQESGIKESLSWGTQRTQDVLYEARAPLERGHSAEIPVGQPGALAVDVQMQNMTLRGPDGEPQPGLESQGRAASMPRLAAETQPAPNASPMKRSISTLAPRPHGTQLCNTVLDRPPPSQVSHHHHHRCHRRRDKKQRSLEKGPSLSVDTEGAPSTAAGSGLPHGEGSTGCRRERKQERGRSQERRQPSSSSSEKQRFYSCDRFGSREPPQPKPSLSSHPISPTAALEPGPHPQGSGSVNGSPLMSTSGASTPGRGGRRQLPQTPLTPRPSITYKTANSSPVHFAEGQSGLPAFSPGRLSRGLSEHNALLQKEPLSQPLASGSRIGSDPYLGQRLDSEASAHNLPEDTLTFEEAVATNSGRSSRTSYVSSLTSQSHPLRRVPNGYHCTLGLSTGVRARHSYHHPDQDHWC
T1 sequence (P54287 whole entry partner): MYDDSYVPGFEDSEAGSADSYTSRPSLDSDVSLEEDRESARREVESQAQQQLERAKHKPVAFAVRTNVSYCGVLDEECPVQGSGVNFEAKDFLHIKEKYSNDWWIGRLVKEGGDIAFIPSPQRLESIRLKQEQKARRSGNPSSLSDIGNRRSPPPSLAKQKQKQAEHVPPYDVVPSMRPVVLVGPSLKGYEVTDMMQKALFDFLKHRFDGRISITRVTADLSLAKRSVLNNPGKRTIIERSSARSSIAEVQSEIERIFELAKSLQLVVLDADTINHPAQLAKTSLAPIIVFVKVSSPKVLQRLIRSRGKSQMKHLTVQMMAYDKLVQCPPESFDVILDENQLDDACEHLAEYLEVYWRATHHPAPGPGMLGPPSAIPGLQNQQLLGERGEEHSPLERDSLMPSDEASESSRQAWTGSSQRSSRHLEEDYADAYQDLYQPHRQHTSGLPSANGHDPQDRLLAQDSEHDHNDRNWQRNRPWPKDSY

Compound: ARSRLAELRGVPRGL (CBD3)
- CRMP-2-CaV2.2 interaction (immunoprecipitation) [1]: inhibited; also recorded: inhibits the binding between CRMP-2 and CaV2.2

Compound: CC(C)C[C@H](NC(=O)CNC(=O)[C@H](CCCNC(=N)N)NC(=O)[C@@H]1CCCN1C(=O)[C@@H](NC(=O)CNC(=O)[C@H](CCCNC(=N)N)NC(=O)[C@H](CC(C)C)NC(=O)[C@H](CCC(=O)O)NC(=O)[C@H](C)NC(=O)[C@H](CC(C)C)NC(=O)[C@H](CCCNC(=N)N)NC(=O)[C@H](CO)NC(=O)[C@H](CCCNC(=N)N)NC(=O)[C@H](C)NC(=O)[C@H](CCCNC(=N)N)NC(=O)[C@H](CCCNC(=N)N)NC(=O)[C@H](CCCNC(=N)N)NC(=O)[C@H](CCC(N)=O)NC(=O)[C@H](CCCNC(=N)N)NC(=O)[C@H](CCCNC(=N)N)NC(=O)[C@H](CCCCN)NC(=O)[C@H](CCCCN)NC(=O)[C@H](CCCNC(=N)N)NC(=O)CNC(=O)[C@@H](N)Cc1ccc(O)cc1)C(C)C)C(=O)O [TAT-CBD3] (H-YGRKKRRQRRRARSRLAELRGVPRGL-OH; N-terminus and C-terminus assumed)
- duration of contortion and tail kinking [2]: dissipated fifteen seconds following their first appearance
- onset of contortion and tail kinking after injection [2]: about 15 seconds
- side-effects observed [2]: whole-body lordosis-like contortion (black arrow) and tail kinking; also recorded: Transient contortions were observed
- number of episodes of contortion and tail kinking ([2]; 60 min observation): Only a single episode of contortion and tail kinking movement
- side-effects immediately following injection ([3]; 10 and 50 mg/kg): A single episode of kinking at the base of the tail and whole body contortion was observed in mice
- tail kinking episodes ([3]; n=7 each condition): only a single episode of tail kinking movement was observed in the mice
- dose giving mild motor impairment relative to dose required to reduce hypersensitivity in vivo ([3]; transient tail kinking and body contortion): more than 50 fold
- body contortion ([3]; up to 50 mg/kg, n=7): no body contortion was observed in mice
- accelerating rotarod performance (motor coordination): had no effect in the accelerating rotarod test
- coordination or spatial memory (Morris water maze) (spatial memory): did not affect coordination or spatial memory
- cell viability (MTT, absorbance at 490 nm) [4]: without affecting cell viability
- cell viability (MTT, absorbance at 490 nm) ([4]; listed as TAT CBD3): does not affect cell viability
- IC50 [5]: 3.1 ± 1.1 µM
